Measurements from ChEMBL document CHEMBL3085759, “Structure-activity relationship (SAR) and preliminary mode of action studies of 3-substituted benzylthioquinolinium iodide as anti-opportunistic infection agents” (Eur J Med Chem, 2013).

Legend:
Nakaseomyces glabratus = experiment: Antimicrobial activity against Candida glabrata by Alamar blue method; assay type: functional, organism-based
Pichia kudriavzevii = experiment: Antimicrobial activity against Candida krusei ATCC 6258 by Alamar blue method; assay type: functional, organism-based
Aspergillus fumigatus = experiment: Antimicrobial activity against Aspergillus fumigatus ATCC 204305 by Alamar blue method; assay type: functional, organism-based
Candida albicans = experiment: Antimicrobial activity against Candida albicans ATCC 90028 by Alamar blue method; assay type: functional, organism-based
Staphylococcus aureus [1] = experiment: Antimicrobial activity against Staphylococcus aureus ATCC 29213 by Alamar blue method; assay type: functional, organism-based; conditions: Staphylococcus aureus, ATCC 29213; for IC50: read-out: IC50
Cryptococcus neoformans = experiment: Antimicrobial activity against Cryptococcus neoformans ATCC 90113 by Alamar blue method; assay type: functional, organism-based
[2] = tested on: Mycobacterium intracellulare; experiment: Antimicrobial activity against Mycobacterium intracellulare ATCC 23068 by Alamar blue method; assay type: functional, organism-based
Staphylococcus aureus [3] = experiment: Antimicrobial activity against methicillin-resistant Staphylococcus aureus ATCC 33591 by Alamar blue method; assay type: functional, organism-based
Vero = experiment: Cytotoxicity against african green monkey Vero cells at 10 ug/ml after 48 hrs by Neutral Red dye assay; assay type: cell-based; conditions: chlorocebus sabaeus

Row | SMILES | IC50 (Nakaseomyces glabratus) [µg/mL] | MFC (Nakaseomyces glabratus) [µg/mL] | MIC (Nakaseomyces glabratus) [µg/mL] | IC50 (Pichia kudriavzevii) [µg/mL] | MFC (Pichia kudriavzevii) [µg/mL] | MIC (Pichia kudriavzevii) [µg/mL] | IC50 (Aspergillus fumigatus) [µg/mL] | MFC (Aspergillus fumigatus) [µg/mL] | MIC (Aspergillus fumigatus) [µg/mL] | IC50 (Candida albicans) [µg/mL] | MFC (Candida albicans) [µg/mL] | MIC (Candida albicans) [µg/mL] | MBC (Staphylococcus aureus [1]) [µg/mL] | MIC (Staphylococcus aureus [1]) [µg/mL] | IC50 (Staphylococcus aureus [1]) [µg/mL] | MFC (Cryptococcus neoformans) [µg/mL] | MIC (Cryptococcus neoformans) [µg/mL] | IC50 [2] [µg/mL] | MIC [2] [µg/mL] | IC50 (Staphylococcus aureus [3]) [µg/mL] | further results
1 | Ic1cc2ccccc2[n+](CCCCCC2CCCCC2)c1.[I-] | > 20 | > 20 | > 20 | 1.7 | 10 | 10 | > 20 | > 20 | > 20 | > 20 | > 20 | > 20 | > 20 | > 20 | 18 | 10 | 10 | > 20 | > 20 | > 20 | IC50 (Cryptococcus neoformans): 5.8 µg/mL; MBC [2]: > 20 µg/mL; MBC (Staphylococcus aureus [3]): > 20 µg/mL; MIC (Staphylococcus aureus [3]): > 20 µg/mL
2 | CC(C)(C)c1ccc(CSc2cc3ccccc3[n+](CCCCCC3CCCCC3)c2)cc1.[I-] | > 20 | > 20 | > 20 | 1.2 | 20 | 20 | > 20 | > 20 | > 20 | 20 | > 20 | > 20 | > 20 | > 20 | > 20 | 10 | 1.3 | > 20 | > 20 | 12 | Activity (Vero): Non-toxic; MBC [2]: > 20 µg/mL; MBC (Staphylococcus aureus [3]): > 20 µg/mL; MIC (Staphylococcus aureus [3]): 20 µg/mL
3 | [I-].c1ccc(CCSc2cc3ccccc3[n+](CCCCCC3CCCCC3)c2)cc1 | 9.5 | > 20 | 20 | 0.69 | 5 | 5 | 19 | > 20 | > 20 | 3.6 | > 20 | > 20 | 10 | 1.3 | 0.73 | 1.3 | 1.3 | 12 | 20 | 1.2 | IC50 (Cryptococcus neoformans): 0.73 µg/mL; MBC (Staphylococcus aureus [3]): 10 µg/mL; MIC (Staphylococcus aureus [3]): 2.5 µg/mL
4 | N#Cc1cccc(CSc2cc3ccccc3[n+](CCCCCC3CCCCC3)c2)c1.[I-] | 4.7 | 10 | 10 | 1.1 | 2.5 | 2.5 | 8.6 | 20 | 20 | 4.3 | 20 | 10 | 2.5 | 1.3 | 0.69 | 5 | 2.5 | 4.8 | 5 | 0.72 | Activity (Vero): Non-toxic; IC50 (Cryptococcus neoformans): 1.1 µg/mL; MBC [2]: 10 µg/mL; MBC (Staphylococcus aureus [3]): 5 µg/mL; MIC (Staphylococcus aureus [3]): 1.3 µg/mL
5 | [I-].c1ccc(CSc2cc3ccccc3[n+](CCCCCC3CCCCC3)c2)cc1 | 2.9 | 5 | 5 | 0.71 | 1.3 | 1.3 | 5.7 | 20 | 10 | 1.6 | 5 | 5 | 10 | 0.31 | 0.23 | 0.63 | 0.31 | 4 | 5 | 0.33 | Activity (Vero): Non-toxic; MBC [2]: 20 µg/mL; MBC (Staphylococcus aureus [3]): 1.3 µg/mL; MIC (Staphylococcus aureus [3]): 0.63 µg/mL
6 | Fc1ccc(Oc2cc3ccccc3[n+](CCCCCC3CCCCC3)c2)cc1.[I-] | > 20 | > 20 | > 20 | > 20 | > 20 | > 20 | > 20 | > 20 | > 20 | > 20 | > 20 | > 20 | > 20 | 20 | 14 | 10 | 10 | 20 | 20 | 14 | IC50 (Cryptococcus neoformans): 8.62 µg/mL; MBC [2]: 20 µg/mL; MBC (Staphylococcus aureus [3]): > 20 µg/mL; MIC (Staphylococcus aureus [3]): > 20 µg/mL
7 | [I-].c1ccc(Oc2cc3ccccc3[n+](CCCCCC3CCCCC3)c2)cc1 | > 20 | > 20 | > 20 | > 20 | > 20 | > 20 | > 20 | > 20 | > 20 | > 20 | > 20 | > 20 | > 20 | > 20 | 19 | > 20 | > 20 | > 20 | > 20 | > 20 | IC50 (Cryptococcus neoformans): > 20 µg/mL; MBC [2]: > 20 µg/mL; MBC (Staphylococcus aureus [3]): > 20 µg/mL; MIC (Staphylococcus aureus [3]): > 20 µg/mL
8 | [I-].c1ccc2c(c1)cc(SC1CCCCC1)c[n+]2CCCCCC1CCCCC1 | 15 | > 20 | > 20 | 0.35 | 2.5 | 2.5 | > 20 | > 20 | > 20 | > 20 | > 20 | > 20 | 10 | 1.3 | 0.74 | 2.5 | 2.5 | 8.4 | 10 | 1.2 | IC50 (Cryptococcus neoformans): 1.2 µg/mL; MBC [2]: 10 µg/mL; MBC (Staphylococcus aureus [3]): 10 µg/mL; MIC (Staphylococcus aureus [3]): 2.5 µg/mL
